Measured values: PubChem BioAssay (NCI)
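Method: 48-hour compound exposure of cells in 96-well plates, five concentrations, linear interpolation of endpoints. At the GI50, growth is halved. TGI denotes the concentration required for complete inhibition of growth.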

Legend:
Experiment in all cases: DTP human tumour cell line panel, 48 h
MOLT-4 leukemia = tested on: MOLT-4 leukemia
NCI-H460 lung = tested on: NCI-H460 lung
OVCAR-5 ovarian = tested on: OVCAR-5 ovarian
NCI-H522 lung = tested on: NCI-H522 lung
K-562 leukemia = tested on: K-562 leukemia
RXF 393 renal = tested on: RXF 393 renal
SNB-75 CNS = tested on: SNB-75 CNS
UACC-257 melanoma = tested on: UACC-257 melanoma
HCT-15 colon = tested on: HCT-15 colon
MDA-MB-435 = tested on: MDA-MB-435

Row | Structure (SMILES) | TGI (MOLT-4 leukemia) | TGI (NCI-H460 lung) | TGI (OVCAR-5 ovarian) | TGI (NCI-H522 lung) | TGI (K-562 leukemia) | TGI (RXF 393 renal) | TGI (SNB-75 CNS) | TGI (UACC-257 melanoma) | TGI (HCT-15 colon) | TGI (MDA-MB-435) | GI50 (NCI-H460 lung) | GI50 (NCI-H522 lung) | GI50 (HCT-15 colon) | GI50 (MDA-MB-435) | GI50 (MOLT-4 leukemia) | GI50 (OVCAR-5 ovarian) | GI50 (K-562 leukemia) | GI50 (RXF 393 renal) | GI50 (SNB-75 CNS) | GI50 (UACC-257 melanoma)
1 | O=C1OC2(c3ccc(O)cc3Oc3cc(O)ccc32)c2c1c(-c1ccccc1)c(-c1ccccc1)c(-c1ccccc1)c2-c1ccccc1 | 56.9 µM | 33.7 µM | 49.3 µM | 32.6 µM | 70 µM | 67.2 µM | 41 µM | 78.3 µM | 38.5 µM | 35.1 µM | – | – | – | – | – | – | – | – | – | –
2 | O=C1c2ccccc2C(=O)c2c(O)c(O)cc(O)c21 | 97.9 µM | > 100 µM | > 100 µM | 96.1 µM | > 100 µM | 85.4 µM | > 100 µM | > 100 µM | > 100 µM | – | – | – | – | – | – | – | – | – | – | –
3 | COc1cc2c3c(n(C4CCNCC4)c(=O)c2cc1OC)-c1cc2c(cc1C3=O)OCO2 | – | 0.276 µM | – | 2.99 µM | – | – | – | – | 1.77 µM | 2.6 µM | 0.119 µM | 0.296 µM | 0.396 µM | 1.19 µM | – | – | – | – | – | –
4 | CCCCCCCCCCCCCCCCOCCCOP(=O)(O)C1CCCN(O)C1=O (centres undefined) | 19.7 µM | 4.51 µM | 18.6 µM | 14.8 µM | 42.3 µM | 12.2 µM | 15 µM | 14.8 µM | 12.1 µM | > 100 µM | 0.375 µM | 2.76 µM | 0.472 µM | 3.13 µM | 1.6 µM | 1.63 µM | 4.25 µM | 1.9 µM | 2.13 µM | 3.23 µM
5 | NC(=O)c1cc(C2OC(CO)C(O)C2O)nn1-c1ccc([N+](=O)[O-])cc1 (centres undefined) | > 100 µM | > 100 µM | > 100 µM | – | > 100 µM | > 100 µM | > 100 µM | > 100 µM | > 100 µM | – | – | – | – | – | – | – | – | – | – | –
6 | COc1ccc(/C=C/[N+](=O)[O-])cc1 | 12.8 µM | 55.3 µM | 50.8 µM | 43.4 µM | > 100 µM | – | > 100 µM | 8.09 µM | 15.2 µM | 4.21 µM | – | – | – | – | – | – | – | – | – | –
7 | COc1cc2c3c(c4cc(OC)c(OC)cc4c2cc1OC)[C@H](O)[C@@H]1CCCN1C3 | > 100 µM | 0.72 µM | 0.732 µM | 1.55 µM | > 100 µM | 1.28 µM | 0.252 µM | 1.15 µM | 5.45 µM | 2.86 µM | – | – | – | – | – | – | – | – | – | –
8 | N#CC1=C(N)Nc2nc3ccccc3n2C1c1ccccc1 (centres undefined) | > 100 µM | > 100 µM | > 100 µM | – | > 100 µM | 56.3 µM | – | > 100 µM | > 100 µM | > 100 µM | – | – | – | – | – | – | – | – | – | –
9 | S=C1NN=C2C(=C3CCCC4C5CCCCC5N2C34)N1 (centres undefined) | > 100 µM | – | > 100 µM | > 100 µM | > 100 µM | – | – | > 100 µM | > 100 µM | – | – | – | – | – | – | – | – | – | – | –
10 | COC1/C=C\OC2(C)Oc3c(C)c(O)c4c(O)c(c(CN(C)C)c(O)c4c3C2=O)NC(=O)/C(C)=C\C=C/C(C)C(O)C(C)C(O)C(C)C(OC(C)=O)C1C (centres undefined) | 38.9 µM | > 100 µM | > 100 µM | 32.1 µM | 85.2 µM | > 100 µM | > 100 µM | 60.9 µM | > 100 µM | 78.6 µM | – | – | – | – | – | – | – | – | – | –
11 | COc1ccc2c(c1)/C(=C\c1cccc(/C=C3/C(=O)Nc4ccc(OC)cc43)n1)C(=O)N2 | 0.802 µM | > 24.6 µM | 3.74 µM | 6.9 µM | 2.02 µM | 2.89 µM | > 100 µM | 18.4 µM | > 25.1 µM | 6.81 µM | – | – | – | – | – | – | – | – | – | –
12 | COC(=O)c1nc2c3c(cccc3c1C(=O)OC)Nc1ccccc1-2 | > 100 µM | 77.9 µM | > 100 µM | 41.5 µM | > 100 µM | > 100 µM | > 100 µM | > 100 µM | – | > 100 µM | – | – | – | – | – | – | – | – | – | –
13 | C[C@H](CCC1=NCCN1)[C@H]1CC[C@H]2[C@@H]3CC[C@@H]4C[C@H](O)CC[C@]4(C)[C@H]3CC[C@]12C | 8.79 µM | > 33.9 µM | 34.7 µM | 14.3 µM | > 21.8 µM | 55.2 µM | 22 µM | 6.6 µM | > 50.2 µM | 22 µM | – | – | – | – | – | – | – | – | – | –
14 | O=C(O)Cc1[nH]cnc1C(=O)O | > 100 µM | > 100 µM | > 100 µM | > 100 µM | > 100 µM | > 100 µM | > 100 µM | > 100 µM | > 100 µM | > 100 µM | – | – | – | – | – | – | – | – | – | –
15 | O=C(O)CNCc1c2ccccc2[n+]([O-])c2ccccc12 | > 100 µM | > 100 µM | > 100 µM | > 100 µM | > 100 µM | – | > 100 µM | > 100 µM | > 100 µM | – | – | – | – | – | – | – | – | – | – | –
16 | CSc1sc(=S)sc1SC | > 100 µM | > 100 µM | > 100 µM | > 100 µM | > 100 µM | > 100 µM | > 90 µM | > 100 µM | > 100 µM | – | – | – | – | – | – | – | – | – | – | –
17 | O=C(O)C(Br)Cc1ccc2c(c1)OCO2 (centres undefined) | > 100 µM | > 100 µM | > 100 µM | > 100 µM | > 100 µM | > 100 µM | > 100 µM | > 100 µM | > 100 µM | – | – | – | – | – | – | – | – | – | – | –
18 | C#C[C@@]1(O)[C@@H](CO)O[C@@H](n2cc(F)c3c(N)ncnc32)[C@@H]1O | > 100 µM | 10.2 µM | > 100 µM | 0.929 µM | > 100 µM | 2.99 µM | 2.32 µM | 4.64 µM | 3.19 µM | 3.26 µM | 0.231 µM | 0.18 µM | 0.297 µM | 0.416 µM | 0.304 µM | 1.78 µM | 0.285 µM | 0.727 µM | 1.03 µM | 0.487 µM
19 | CCOn1cc(C2=C(c3c[nH]c4ccccc34)C(=O)NC2=O)c2ccccc21 | 10.4 µM | 15.4 µM | 17.2 µM | > 33.6 µM | > 33.1 µM | – | 34.8 µM | 20.5 µM | 14.8 µM | < 0.0142 µM | – | – | – | < 0.01 µM | < 0.01 µM | 0.398 µM | < 0.0139 µM | < 0.0325 µM | < 0.0288 µM | 0.859 µM
20 | C/C(=C\COP(=O)(O)OP(=O)(O)O)CC/C=C(\C)CNc1ccc([N+](=O)[O-])cc1 | > 100 µM | > 100 µM | > 100 µM | > 100 µM | > 100 µM | > 100 µM | > 100 µM | > 100 µM | > 100 µM | > 100 µM | – | – | – | – | – | – | – | – | – | –
21 | CSc1ccc(-c2cc(-c3nc4ccccc4[nH]3)nc3[nH]c(-c4nc5ccccc5[nH]4)cc(=O)c23)cc1 | > 100 µM | > 100 µM | > 100 µM | > 100 µM | > 100 µM | > 100 µM | > 100 µM | > 100 µM | > 100 µM | > 100 µM | – | – | – | – | – | – | – | – | – | –
22 | Nc1nncs1 | > 4900 µM | 3750 µM | > 4450 µM | 4690 µM | > 5000 µM | > 5000 µM | > 3710 µM | > 4200 µM | 4920 µM | > 5000 µM | – | – | – | – | – | – | – | – | – | –
